Residues, ends and D or L forms follow the SMILES beside them.
Tests used:
Type in all cases: cell-based
[1] = biological target: T1, BB3 (Homo sapiens, UniProt P32247); assay: IP1 accumulation (Gq/11), HTRF
T1 construct: hIL-2Ra signal peptide (N); expressed in transfected cells
T1 sequence (P32247 2-399 limits assumed): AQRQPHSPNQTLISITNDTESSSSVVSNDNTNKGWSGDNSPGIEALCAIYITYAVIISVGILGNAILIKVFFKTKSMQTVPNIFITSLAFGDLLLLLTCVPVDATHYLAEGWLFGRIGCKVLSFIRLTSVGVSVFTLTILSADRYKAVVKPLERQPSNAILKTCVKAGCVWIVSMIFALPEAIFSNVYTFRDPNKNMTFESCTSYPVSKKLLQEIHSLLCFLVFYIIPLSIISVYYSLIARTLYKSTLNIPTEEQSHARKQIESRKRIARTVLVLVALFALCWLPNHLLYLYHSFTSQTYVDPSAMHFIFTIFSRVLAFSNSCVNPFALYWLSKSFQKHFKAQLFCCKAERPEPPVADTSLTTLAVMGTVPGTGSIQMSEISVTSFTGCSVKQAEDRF

[2] = biological target: T1, BB3; assay: Dynamic mass redistribution (DMR), concentration-response
[3] = biological target: T1, BB3; assay: Real-time receptor internalization (TR-FRET), concentration-response
[4] = biological target: T2, GPR1 (Homo sapiens, UniProt P46091); assay: β-arrestin recruitment (PathHunter); conditions: receptor GPR1; mean, SEM and n (2-3); read-out: b-arrestin recruitment assays (PathHunter) pEC50 (converted)
T2 sequence (P46091 1-355): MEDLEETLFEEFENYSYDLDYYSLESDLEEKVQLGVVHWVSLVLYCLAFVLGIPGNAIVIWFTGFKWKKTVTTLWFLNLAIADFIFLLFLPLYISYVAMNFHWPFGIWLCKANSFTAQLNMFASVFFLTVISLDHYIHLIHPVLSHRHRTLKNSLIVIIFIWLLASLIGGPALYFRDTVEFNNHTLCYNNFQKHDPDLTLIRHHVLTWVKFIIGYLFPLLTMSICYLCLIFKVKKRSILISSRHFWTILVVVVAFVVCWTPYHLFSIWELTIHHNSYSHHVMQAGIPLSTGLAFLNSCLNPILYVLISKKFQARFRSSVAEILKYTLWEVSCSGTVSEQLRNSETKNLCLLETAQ
Procedure: PathHunter eXpress Assays (DiscoverX) were performed in 384-well format according to the manufacturer’s recommendations. GPR1 cells were incubated with peptides for 90 min and luminescence measured using an EnSpire 2300 Multimode plate reader (PerkinElmer).

[5] = IP1 accumulation assays pEC50, receptor BB3, mean, SEM and n (2-4)
[6] = DMR assays pEC50, receptor BB3, mean, SEM and n (3)
[7] = receptor BB3, mean, SEM and n (3), read-out: Internalization assays pEC50 (converted)
[8] = receptor BB3, mean, SEM and n (2-4), read-out: IP1 accumulation assays pEC50 (converted)
[9] = receptor BB3, mean, SEM and n (3), read-out: DMR assays pEC50 (converted)
[10] = receptor BB3, mean, SEM and n (2-4)
[11] = receptor BB3, mean, SEM and n (3)

CSCC[C@H](NC(=O)[C@H](Cc1ccccc1)NC(=O)[C@H](Cc1cnc[nH]1)NC(=O)CNC(=O)[C@@H](NC(=O)[C@H](C)NC(=O)[C@H](Cc1c[nH]c2ccccc12)NC(=O)[C@H](CC(C)C)NC(=O)[C@H](CC(N)=O)NC(=O)CN)[C@@H](C)O)C(N)=O [59 resynthesized]
EC50 [1, 5]: 525 nM
EC50 [2, 6]: 27.5 nM
EC50 [3, 7]: 1550 nM

CSCC[C@H](NC(=O)[C@H](CC(C)C)NC(=O)[C@H](Cc1cnc[nH]1)NC(=O)CNC(=O)[C@@H](NC(=O)[C@H](C)NC(=O)[C@H](Cc1c[nH]c2ccccc12)NC(=O)[C@H](Cc1cnc[nH]1)NC(=O)[C@H](CC(N)=O)NC(=O)CN)C(C)C)C(N)=O [Peptide 167.1]
EC50 [1, 8]: 2510 nM
EC50 [4]: 22900 nM
EC50 [2, 9]: 490 nM
EC50 [3, 7]: 14500 nM

YGGFMRRVGRPEWWMDYQKRYGGFL [158 original]
IP1 accumulation assays Emax [1, 10]: 164.0 nM
Internalization assays Emax (AUC) [3, 11]: 16.0

CC(C)C[C@H](NC(=O)[C@H](CCCCN)NC(=O)[C@H](CCC(N)=O)NC(=O)[C@@H](NC(=O)[C@H](CCCCN)NC(=O)[C@H](CO)NC(=O)[C@H](Cc1ccc(O)cc1)NC(=O)[C@H](Cc1c[nH]cn1)NC(=O)[C@H](Cc1ccccc1)NC(=O)[C@H](CC(C)C)NC(=O)[C@@H](N)Cc1ccccc1)[C@@H](C)O)C(N)=O [Peptide 67] (H-FLFHYSKTQKL-NH2; N-terminus assumed)
EC50 ([3]; SNAP-tagged BB3 in Flp-In T-REx 293 cells, TR-FRET 60 min, 37°C, AUC, mean ± SEM of 3-4 independent experiments in triplicate, read-out: pEC50, internalization, BB3 (converted)): > 10000 nM

CSCC[C@H](NC(=O)[C@H](Cc1ccccc1)NC(=O)CNC(=O)CNC(=O)[C@@H](N)Cc1ccc(O)cc1)C(=O)N[C@@H](CCCNC(=N)N)C(=O)N[C@@H](CCCNC(=N)N)C(=O)N[C@H](C(=O)NCC(=O)N[C@@H](CCCNC(=N)N)C(=O)N1CCC[C@H]1C(=O)N[C@@H](CCC(=O)O)C(=O)N[C@@H](Cc1c[nH]c2ccccc12)C(=O)N[C@@H](Cc1c[nH]c2ccccc12)C(=O)N[C@@H](CCSC)C(=O)N[C@@H](CC(=O)O)C(=O)N[C@@H](Cc1ccc(O)cc1)C(=O)N[C@@H](CCC(N)=O)C(=O)N[C@@H](CCCCN)C(=O)N[C@@H](CCCNC(=N)N)C(=O)N[C@@H](Cc1ccc(O)cc1)C(=O)NCC(=O)NCC(=O)N[C@@H](Cc1ccccc1)C(=O)N[C@@H](CC(C)C)C(=O)O)C(C)C [158 resynthesized] (H-YGGFMRRVGRPEWWMDYQKRYGGFL-OH)
EC50 [1, 5]: 3720 nM
EC50 [2, 6]: 110000 nM
EC50 ([3]; Internalization assays pEC50): 3890 nM

FLFHYSKTQKL [67 original]
IP1 accumulation assays Emax [1, 10]: 62.1 nM
DMR assays Emax (peak or AUC) [2, 11]: 199
Internalization assays Emax (AUC) [3, 11]: 14.6

CC[C@H](C)[C@H](NC(=O)[C@H](CCCCN)NC(=O)[C@H](CO)NC(=O)[C@H](C)NC(=O)[C@H](CCCNC(=N)N)NC(=O)[C@H](CO)NC(=O)[C@H](CCCNC(=N)N)NC(=O)[C@@H]1CCCN1C(=O)[C@H](CCC(=O)O)NC(=O)[C@@H]1CCCN1C(=O)[C@H](CC(C)C)NC(=O)[C@H](CC(=O)O)NC(=O)[C@H](Cc1c[nH]c2ccccc12)NC(=O)[C@H](CO)NC(=O)[C@H](CC(C)C)NC(=O)[C@@H]1CCCN1C(=O)[C@H](C)N)C(=O)N[C@@H](CCCNC(=N)N)C(=O)N[C@H](C(=O)N[C@@H](Cc1c[nH]cn1)C(=O)N[C@@H](CO)C(=O)N[C@@H](CCCNC(=N)N)C(=O)NCC(=O)N[C@@H](CC(N)=O)C(=O)N[C@@H](CC(C)C)C(=O)N[C@@H](Cc1c[nH]c2ccccc12)C(=O)N[C@@H](C)C(=O)N[C@H](C(=O)NCC(=O)N[C@@H](Cc1c[nH]cn1)C(=O)N[C@@H](Cc1ccccc1)C(=O)N[C@@H](CCSC)C(N)=O)[C@@H](C)O)C(C)C [59.1 (Phoenix)] (H-APLSWDLPEPRSRASKIRVHSRGNLWATGHFM-NH2)
EC50 [1, 8]: 224 nM
EC50 [2, 9]: 49 nM
EC50 [3, 7]: 646 nM

CSCC[C@H](NC(=O)[C@H](Cc1c[nH]c2ccccc12)NC(=O)[C@H](Cc1c[nH]c2ccccc12)NC(=O)[C@H](CCC(=O)O)NC(=O)[C@@H]1CCCN1)C(=O)N[C@@H](CC(=O)O)C(=O)N[C@@H](Cc1ccc(O)cc1)C(=O)N[C@@H](CCC(N)=O)C(=O)N[C@@H](CCCCN)C(=O)N[C@@H](CCCNC(=N)N)C(=O)N[C@@H](Cc1ccc(O)cc1)C(=O)NCC(=O)NCC(=O)N[C@@H](Cc1ccccc1)C(=O)N[C@@H](CC(C)C)C(=O)O [Peptide 158.6] (H-PEWWMDYQKRYGGFL-OH)
EC50 [1]: 31600 nM
EC50 [2]: 832 nM
EC50 [3]: 9550 nM

CC(C)C[C@H](NC(=O)[C@H](CCCCN)NC(=O)[C@H](CCC(N)=O)NC(=O)[C@@H](NC(=O)[C@H](CCCCN)NC(=O)[C@H](CO)NC(=O)[C@H](Cc1ccc(O)cc1)NC(=O)[C@H](Cc1c[nH]cn1)NC(=O)[C@H](Cc1ccccc1)NC(=O)[C@H](CC(C)C)NC(=O)[C@@H](N)Cc1ccccc1)[C@@H](C)O)C(N)=O [Neuromedin U pre-pro_(1-11)] (H-FLFHYSKTQKL-NH2)
EC50 ([1]; BB3, mean, SEM and n, read-out: pEC50, IP1 (converted)): 2190 nM
EC50 ([2]; BB3, mean, SEM and n, read-out: pEC50, DMR (peak) (converted)): 2290 nM
EC50 ([3]; BB3, mean, SEM and n, read-out: pEC50, Internalization (AUC) (converted)): 31600 nM

CSCC[C@H](NC(=O)[C@H](Cc1ccccc1)NC(=O)CNC(=O)CNC(=O)[C@@H](N)Cc1ccc(O)cc1)C(=O)N[C@@H](CCCNC(=N)N)C(=O)N[C@@H](CCCNC(=N)N)C(=O)N[C@H](C(=O)NCC(=O)N[C@@H](CCCNC(=N)N)C(=O)N1CCC[C@H]1C(=O)N[C@@H](CCC(=O)O)C(=O)N[C@@H](Cc1c[nH]c2ccccc12)C(=O)N[C@@H](Cc1c[nH]c2ccccc12)C(=O)N[C@@H](CCSC)C(=O)N[C@@H](CC(=O)O)C(=O)N[C@@H](Cc1ccc(O)cc1)C(=O)N[C@@H](CCC(N)=O)C(=O)O)C(C)C [Peptide 158.5] (H-YGGFMRRVGRPEWWMDYQ-OH)
EC50 [1, 5]: 100 nM
EC50 [2, 6]: 69200 nM

CSCC[C@H](NC(=O)[C@H](Cc1ccccc1)NC(=O)CNC(=O)CNC(=O)[C@@H](N)Cc1ccc(O)cc1)C(=O)N[C@@H](CCCNC(=N)N)C(=O)N[C@@H](CCCNC(=N)N)C(=O)N[C@H](C(N)=O)C(C)C [Peptide 158.3]
EC50 [1, 5]: 89.1 nM
EC50 [2, 6]: 15500 nM

CC(C)C[C@H](NC(=O)[C@H](Cc1ccccc1)NC(=O)CNC(=O)CNC(=O)[C@@H](N)Cc1ccc(O)cc1)C(=O)O [158.2 (Phoenix)]
EC50 [1]: 15.8 nM
EC50 [2]: 245 nM
EC50 [3]: 4680 nM

CC(C)C[C@H](NC(=O)[C@H](CCCCN)NC(=O)[C@H](CCC(N)=O)NC(=O)[C@@H](NC(=O)[C@H](CCCCN)NC(=O)[C@H](CO)NC(=O)[C@H](Cc1ccc(O)cc1)NC(=O)[C@H](Cc1c[nH]cn1)NC(=O)[C@H](Cc1ccccc1)NC(=O)[C@H](CC(C)C)NC(=O)[C@@H](N)Cc1ccccc1)[C@@H](C)O)C(N)=O [67 resynthesized] (H-FLFHYSKTQKL-NH2)
EC50 [1, 8]: 1660 nM
EC50 [2, 9]: 2690 nM
EC50 [3, 7]: 34700 nM

CSCC[C@H](NC(=O)[C@H](Cc1c[nH]c2ccccc12)NC(=O)[C@H](Cc1c[nH]c2ccccc12)NC(=O)[C@H](CCC(=O)O)NC(=O)[C@@H]1CCCN1C(=O)[C@H](CCCNC(=N)N)NC(=O)CNC(=O)[C@@H](N)C(C)C)C(=O)N[C@@H](CC(=O)O)C(=O)N[C@@H](Cc1ccc(O)cc1)C(=O)N[C@@H](CCC(N)=O)C(=O)N[C@@H](CCCCN)C(=O)N[C@@H](CCCNC(=N)N)C(=O)N[C@@H](Cc1ccc(O)cc1)C(=O)NCC(=O)NCC(=O)N[C@@H](Cc1ccccc1)C(=O)N[C@@H](CC(C)C)C(=O)O [Peptide 158.4] (H-VGRPEWWMDYQKRYGGFL-OH)
EC50 [1]: 16200 nM
EC50 [2]: 8710 nM
EC50 [3]: 10200 nM

CSCC[C@H](NC(=O)[C@H](Cc1ccccc1)NC(=O)CNC(=O)CNC(=O)[C@@H](N)Cc1ccc(O)cc1)C(=O)O [158.1 (Phoenix)]
EC50 [1, 5]: 12.6 nM
EC50 [2, 6]: 64.6 nM
